From patent US10150766B2, “P2X7 modulators” (Jansssen Pharmaceutica NV, priority 2014, dated 2018) come the findings set out here.

The target in experiment [1] is T1, P2X7 (Homo sapiens (Human), UniProt Q99572). Description: P2X7 antagonism in human peripheral blood mononuclear cells (PBMCs), IL-1β release (LPS + Bz-ATP, ELISA). Format: cell-based. To be noted: P2X7, 10 μM test compound, LPS 30 ng/ml + Bz-ATP 0.5 mM, read-out: PBMC @10 μM (% control). (In general: An ELISA detects its analyte on a solid surface through an enzyme-linked reagent.)

Experiment [2] has as its target T1, P2X7. The experiment can be described thus: Radioligand binding ([3H]A-804598) to membranes of human P2X7-1321N1 cells. To be noted: human P2X7-1321N1 membranes, tracer tritiated A-804598, 1 hour at 4° C. Here is the method:
P2X7 Antagonism in Recombinant Human P2X7 Cells or Recombinant Rat P2X7 Cells:
human or rat P2X7-1321N1 cells were collected and frozen @ −80° C. On the day of the experiment, cell membrane preparations were made according to standard published methods. […] The compound can be prepared as described in the literature. […] The assay was terminated by filtration (GF/B filters pre-soaked with 0.3% PEI) and washed with washing buffer (Tris-HCl 50 mM). The IC50 generated in the binding assay was corrected for tracer concentration and affinity of the tracer to derive at the affinity (Ki) of the test compounds. The data are presented in Table 2 under the headings: P2X7 human Ki (μM) and P2X7 rat Ki (μM). Data are analyzed and graphed on Graphpad Prism 5. For analysis, each concentration point is averaged from triplicate values and the averaged values are plotted on Graphpad Prism.

In the next experiment the target is rat P2X7 (Rattus norvegicus (Rat), UniProt Q64663). The experiment can be described thus: P2X7 antagonism in recombinant rat P2X7 cells (column headed P2X7 Rat IC50). The experiment is classed as binding.
Experiment [3] deals with T1, P2X7. Description: P2X7 antagonism in human whole blood, IL-1β release (LPS + Bz-ATP, ELISA). Format: cell-based. To be noted: LPS 30 ng/ml + Bz-ATP 1 mM.
Where [4] appears, read: read-out: Human Whole Blood IC50.

Where two headings read alike, the source gives them in different places.

T1 sequence (Q99572 whole entry): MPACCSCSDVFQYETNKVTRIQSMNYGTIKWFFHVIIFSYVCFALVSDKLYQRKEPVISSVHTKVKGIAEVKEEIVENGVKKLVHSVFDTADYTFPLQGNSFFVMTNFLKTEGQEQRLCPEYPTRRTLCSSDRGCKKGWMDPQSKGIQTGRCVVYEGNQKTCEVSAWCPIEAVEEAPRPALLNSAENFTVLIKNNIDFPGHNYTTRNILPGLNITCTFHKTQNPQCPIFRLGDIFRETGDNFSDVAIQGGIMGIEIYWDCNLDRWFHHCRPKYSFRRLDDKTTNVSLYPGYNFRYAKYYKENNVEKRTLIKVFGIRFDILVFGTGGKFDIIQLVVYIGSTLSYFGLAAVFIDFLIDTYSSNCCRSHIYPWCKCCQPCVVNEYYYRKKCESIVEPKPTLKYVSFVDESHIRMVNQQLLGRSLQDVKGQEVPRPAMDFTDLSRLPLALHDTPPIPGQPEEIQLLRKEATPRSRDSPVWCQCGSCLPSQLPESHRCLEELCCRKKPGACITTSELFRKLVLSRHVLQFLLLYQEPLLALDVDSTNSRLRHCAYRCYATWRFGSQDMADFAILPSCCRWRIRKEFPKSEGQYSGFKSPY
rat P2X7, sequence (Q64663 whole entry): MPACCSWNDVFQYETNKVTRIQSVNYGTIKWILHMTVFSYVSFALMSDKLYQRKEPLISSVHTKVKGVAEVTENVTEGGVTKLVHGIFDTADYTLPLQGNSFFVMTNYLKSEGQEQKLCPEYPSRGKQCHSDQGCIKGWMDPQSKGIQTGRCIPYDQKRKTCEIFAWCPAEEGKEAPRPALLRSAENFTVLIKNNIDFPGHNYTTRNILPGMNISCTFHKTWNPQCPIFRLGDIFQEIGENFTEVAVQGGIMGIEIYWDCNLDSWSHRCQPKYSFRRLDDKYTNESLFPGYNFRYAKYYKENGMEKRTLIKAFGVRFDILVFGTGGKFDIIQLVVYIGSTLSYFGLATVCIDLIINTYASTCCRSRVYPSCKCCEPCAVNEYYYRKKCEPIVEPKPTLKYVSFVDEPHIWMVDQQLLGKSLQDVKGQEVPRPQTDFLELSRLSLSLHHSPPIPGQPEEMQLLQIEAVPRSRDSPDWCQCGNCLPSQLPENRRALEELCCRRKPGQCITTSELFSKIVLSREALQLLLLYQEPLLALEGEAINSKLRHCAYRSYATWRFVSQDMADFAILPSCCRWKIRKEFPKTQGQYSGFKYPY

Regarding `Cc1nc(-c2ccc(F)cc2)c2c(n1)[C@H]1CCC[C@@H](C2)N1C(=O)c1cccc(C(F)(F)F)c1Cl` [Example 51, (2-chloro-3-(trifluoromethyl)phenyl)((6S,10R)-4-(4-fluorophenyl)-2-methyl-5,6,7,8,9,10-hexahydro-6,10-epiminocycloocta[d]pyrimidin-11-yl)methanone], on P2X7 [1], the remaining activity at 10 µM is -3%. The affinity on P2X7 [2] corresponds to a Ki of 0.0447 µM. Moreover, the IC50 on rat P2X7 was 0.0166 µM; at P2X7 [3] (Human Whole Blood IC50 (μM)), 0.043 µM.
Regarding `Cc1nc(-c2ccccn2)c2c(n1)[C@H]1CCC[C@@H](C2)N1C(=O)c1ccc(Cl)c(F)c1Cl` [Example 64, (2,4-dichloro-3-fluorophenyl)((6S,10R)-2-methyl-4-(pyridin-2-yl)-5,6,7,8,9,10-hexahydro-6,10-epiminocycloocta[d]pyrimidin-11-yl)methanone], the remaining activity at 10 µM at P2X7 [1] is -2.8%. Moreover, at P2X7 [2], the Ki worked out at 0.02 µM. The IC50 on rat P2X7 is 0.376 µM; at P2X7 [3] (Human Whole Blood IC50 (μM)), 0.037 µM.
`Cc1nc(-c2ncccn2)c2c(n1)[C@H]1CCC[C@@H](C2)N1C(=O)c1cccc(Cl)c1Cl` [Example 45, (2,3-dichlorophenyl)((6S,10R)-2-methyl-4-(pyrimidin-2-yl)-5,6,7,8,9,10-hexahydro-6,10-epiminocycloocta[d]pyrimidin-11-yl)methanone]: on P2X7 [1], the remaining activity at 10 µM is -14.2%. Besides, the affinity on P2X7 [2], expressed as Ki, was 0.0251 µM. Further, the IC50 on rat P2X7 came out at 0.128 µM; at P2X7 [3] (Human Whole Blood IC50 (μM)), 0.064 µM.
With `Cc1nc(-c2ccn[nH]2)c2c(n1)[C@H]1CCC[C@@H](C2)N1C(=O)c1cccc(Cl)c1Cl` [Example 29, (2,3-dichlorophenyl)((6S,10R)-2-methyl-4-(1H-pyrazol-5-yl)-5,6,7,8,9,10-hexahydro-6,10-epiminocycloocta[d]pyrimidin-11-yl)methanone], the remaining activity at 10 µM on P2X7 [1] was -22.9%. Moreover, on P2X7 [2], the Ki was determined as 0.02 µM. The half-maximal inhibitory concentration (IC50) worked out at 0.207 µM at rat P2X7 and 0.008 µM on P2X7 [3] (Human Whole Blood IC50 (μM)).
Taken in the same sequence, the figures for `Cc1nc(-c2ccccn2)c2c(n1)[C@H]1CCC[C@@H](C2)N1C(=O)c1cccc(C(F)(F)F)c1C` [Example 62, (2-methyl-3-(trifluoromethyl)phenyl)((6S,10R)-2-methyl-4-(pyridin-2-yl)-5,6,7,8,9,10-hexahydro-6,10-epiminocycloocta[d]pyrimidin-11-yl)methanone] were -1.4%, 0.0631 µM, 0.0513 µM and 0.058 µM.
Consider `Cc1nc(-c2ccn[nH]2)c2c(n1)[C@H]1CCC[C@@H](C2)N1C(=O)c1ccc(F)cc1Cl` [Example 22, (2-chloro-4-fluorophenyl)((6S,10R)-2-methyl-4-(1H-pyrazol-5-yl)-5,6,7,8,9,10-hexahydro-6,10-epiminocycloocta[d]pyrimidin-11-yl)methanone], for which, at P2X7 [1], the remaining activity at 10 µM worked out at 26.8%. This molecule also had a Ki at P2X7 [2] of 0.316 µM. For the same molecule, the IC50 at rat P2X7 is above 10 µM; on P2X7 [3] (setting [4]) it was 0.286 µM.
For `Cc1nc(-c2ccccn2)c2c(n1)[C@H]1CCC[C@@H](C2)N1C(=O)c1cccc(C(F)(F)F)c1Cl` [Example 63, (2-chloro-3-(trifluoromethyl)phenyl)((6S,10R)-2-methyl-4-(pyridin-2-yl)-5,6,7,8,9,10-hexahydro-6,10-epiminocycloocta[d]pyrimidin-11-yl)methanone], on P2X7 [1], the remaining activity at 10 µM was -0.9%. Also, the affinity on P2X7 [2] corresponds to a Ki of 0.0398 µM. The IC50 on rat P2X7 was determined as 0.0331 µM; on P2X7 [3] (Human Whole Blood IC50 (μM)), 0.068 µM.
For `Cc1nc(-c2ccnn2C)c2c(n1)[C@H]1CCC[C@@H](C2)N1C(=O)c1ccc(Cl)c(F)c1Cl` [Example 58, (2,4-dichloro-3-fluorophenyl)((6S,10R)-2-methyl-4-(1-methyl-1H-pyrazol-5-yl)-5,6,7,8,9,10-hexahydro-6,10-epiminocycloocta[d]pyrimidin-11-yl)methanone], the remaining activity at 10 µM on P2X7 [1] is -3.3%. Also, the affinity at P2X7 [2] corresponds to a Ki of 0.0933 µM. Also, the figures for the IC50 at rat P2X7 and on P2X7 [3] (setting [4]) were 0.805 µM and 0.13 µM, respectively.
As to `Cc1nc(-c2ccn[nH]2)c2c(n1)[C@H]1CCC[C@@H](C2)N1C(=O)c1cccc(C(F)(F)F)c1C` [Example 21, (2-methyl-3-(trifluoromethyl)phenyl)((6S,10R)-2-methyl-4-(1H-pyrazol-5-yl)-5,6,7,8,9,10-hexahydro-6,10-epiminocycloocta[d]pyrimidin-11-yl)methanone], on P2X7 [1], the remaining activity at 10 µM is -26.4%. Moreover, the affinity at P2X7 [2], expressed as Ki, was 0.0316 µM. Moreover, the values for the IC50 on rat P2X7 and on P2X7 [3] (Human Whole Blood IC50 (μM)) were 0.0332 µM and 0.026 µM, respectively.
Regarding `Cc1nc(-c2cnccn2)c2c(n1)[C@H]1CCC[C@@H](C2)N1C(=O)c1cccc(C(F)(F)F)c1Cl` [Example 46, (2-chloro-3-(trifluoromethyl)phenyl)((6S,10R)-2-methyl-4-(pyrazin-2-yl)-5,6,7,8,9,10-hexahydro-6,10-epiminocycloocta[d]pyrimidin-11-yl)methanone], on P2X7 [1], the remaining activity at 10 µM was -4.2%. Further, the affinity at P2X7 [2] corresponds to a Ki of 0.0316 µM. Further, the IC50 on rat P2X7 came to 0.0141 µM; at P2X7 [3] (Human Whole Blood IC50 (μM)), 0.088 µM.
On to `Cc1nc(-c2cnccn2)c2c(n1)[C@H]1CCC[C@@H](C2)N1C(=O)c1cccc(C(F)(F)F)c1C` [Example 50, (2-methyl-3-(trifluoromethyl)phenyl)((6S,10R)-2-methyl-4-(pyrazin-2-yl)-5,6,7,8,9,10-hexahydro-6,10-epiminocycloocta[d]pyrimidin-11-yl)methanone], for which the remaining activity at 10 µM at P2X7 [1] is -2.2%. The molecule further came in with a Ki on P2X7 [2] of 0.0933 µM. Also, the IC50 came out at 0.0678 µM at rat P2X7 and 0.158 µM on P2X7 [3] (setting [4]).
Taken in the same sequence, the figures for `Cc1nc(-c2ccn[nH]2)c2c(n1)[C@H]1CCC[C@@H](C2)N1C(=O)c1ccnc(C(F)(F)F)c1F` [Example 27, (3-fluoro-2-(trifluoromethyl)pyridin-4-yl)((6S,10R)-2-methyl-4-(1H-pyrazol-5-yl)-5,6,7,8,9,10-hexahydro-6,10-epiminocycloocta[d]pyrimidin-11-yl)methanone] were -10.2%, 0.151 µM, 0.132 µM and 0.172 µM.
Regarding `Cc1nc(-c2ccccn2)c2c(n1)[C@H]1CCC[C@@H](C2)N1C(=O)c1cccc(Cl)c1Cl` [Example 65, (2,3-dichlorophenyl)((6S,10R)-2-methyl-4-(pyridin-2-yl)-5,6,7,8,9,10-hexahydro-6,10-epiminocycloocta[d]pyrimidin-11-yl)methanone], the remaining activity at 10 µM on P2X7 [1] stood at 0.1%. On P2X7 [2], the affinity corresponds to a Ki of 0.049 µM. Further, the values for the IC50 at rat P2X7 and at P2X7 [3] (Human Whole Blood IC50 (μM)) were 0.184 µM and 0.042 µM, respectively.
With `Cc1nc(-c2ccn[nH]2)c2c(n1)[C@H]1CCC[C@@H](C2)N1C(=O)c1ccc(F)c(Cl)c1Cl` [Example 25, (2,3-dichloro-4-fluorophenyl)((6S,10R)-2-methyl-4-(1H-pyrazol-5-yl)-5,6,7,8,9,10-hexahydro-6,10-epiminocycloocta[d]pyrimidin-11-yl)methanone], the remaining activity at 10 µM on P2X7 [1] is -10.2%. Further, at P2X7 [2], the Ki was determined as 0.02 µM. Moreover, the IC50 worked out at 0.0187 µM at rat P2X7 and 0.025 µM at P2X7 [3] (Human Whole Blood IC50 (μM)).
Consider `Cc1nc(-c2ccn[nH]2)c2c(n1)[C@H]1CCC[C@@H](C2)N1C(=O)c1ccc(Cl)cc1F` [Example 28, (4-chloro-2-fluorophenyl)((6S,10R)-2-methyl-4-(1H-pyrazol-5-yl)-5,6,7,8,9,10-hexahydro-6,10-epiminocycloocta[d]pyrimidin-11-yl)methanone], for which the remaining activity at 10 µM at P2X7 [1] was -25.1%. Affinity at P2X7 [2] was put at a Ki of 0.126 µM. The IC50 turned out to be 7.94 µM on rat P2X7 and 0.423 µM on P2X7 [3] (setting [4]).

By Ki is commonly meant a dissociation constant, usually derived from enzyme kinetics or from competition with a known ligand. High values mean lower affinity, low ones higher affinity. For orientation: IC50 means the concentration needed to halve the response being measured.
